# Assay results: PubChem BioAssay AID328 (DTP/NCI, 2004)
# Values joined by “and” are separate entries in the source; they are usually repeats but may differ in a detail not shown here. Identical values can stand only once. Toxic doses and inconclusive results are not listed.
# Test system: BDF1 mice, P388 leukemia ip, median survival T/C
# Assay: NCI In Vivo Anticancer Drug Screen. Data for tumor model P388 Leukemia (intraperitoneal) in B6D2F1 (BDF1) mice
# Details: endpoint: median survival time, higher = longer survival
# In short: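 Antitumour effect was judged in vivo: survival in drug-treated mice, normalised to that of vehicle-dosed controls, gives the reported T/C.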
# [1] = dose: 50.0 mg/kg/injection, schedule: Q01DX009 (ip), vehicle: saline with Tween-80
# [2] = dose: 100.0 mg/kg/injection, schedule: Q01DX009 (ip), vehicle: saline with Tween-80
# [3] = dose: 200.0 mg/kg/injection, schedule: Q01DX009 (ip), vehicle: saline with Tween-80
# [4] = dose: 100.0 mg/kg/injection, schedule: Q01DX001 (ip), vehicle: saline with Tween-80
# [5] = dose: 200.0 mg/kg/injection, schedule: Q01DX001 (ip), vehicle: saline with Tween-80
# [6] = dose: 400.0 mg/kg/injection, schedule: Q01DX001 (ip), vehicle: saline with Tween-80
# [7] = dose: 100.0 mg/kg/injection, schedule: Q04DX003 (ip), vehicle: saline with Tween-80
compound,measurement,setting,value
CC(C)CCN(CCC(C)C)CC(O)c1cc(-c2ccc(C(F)(F)F)cc2)nc(-c2ccc(C(F)(F)F)cc2)c1 (stereo not drawn),T/C,[1],113 % of control
same,T/C,[2],106 % of control
same,T/C,[3],113 % of control
CC(=O)C(C(C)=O)c1cc(NS(=O)(=O)c2ccccc2)ccc1O,T/C,[4],104 % of control
same,T/C,[5],100 % of control
same,T/C,[6],95 % of control
O=S1(=O)C=C(c2ccccc2)C(c2ccccc2)=C1,T/C,"dose: 22.0 mg/kg/injection, schedule: Q04DX003 (ip), vehicle: saline",104 % of control
same,T/C,"dose: 33.0 mg/kg/injection, schedule: Q04DX003 (ip), vehicle: saline",113 % of control
same,T/C,"dose: 50.0 mg/kg/injection, schedule: Q04DX003 (ip), vehicle: saline sonified",118 % of control
same,T/C,"dose: 75.0 mg/kg/injection, schedule: Q04DX003 (ip), vehicle: saline sonified",150 % of control
same,T/C,"dose: 75.0 mg/kg/injection, schedule: Q04DX003 (ip), vehicle: saline",122 % of control
Clc1ccc(COC(Cn2ccnc2)c2ccc(Cl)cc2Cl)c(Cl)c1 (stereo not drawn),T/C,"dose: 18.7 mg/kg/injection, schedule: Q01DX009 (ip), vehicle: saline with Tween-80",118 % of control
same,T/C,"dose: 75.0 mg/kg/injection, schedule: Q01DX009 (ip), vehicle: saline with Tween-80",118 % of control
same,T/C,[3],108 % of control
same,T/C,"dose: 400.0 mg/kg/injection, schedule: Q01DX009 (ip), vehicle: saline with Tween-80",108 % of control
CC(=O)Nc1ccn(C2OC(COC(C)=O)C(OC(C)=O)C2OC(C)=O)c(=O)n1 (stereo not drawn),T/C,[7],109 % of control
same,T/C,"dose: 177.0 mg/kg/injection, schedule: Q04DX003 (ip), vehicle: saline with Tween-80",104 % of control
same,T/C,"dose: 266.0 mg/kg/injection, schedule: Q04DX003 (ip), vehicle: saline with Tween-80",100 % of control and 116 % of control
same,T/C,"dose: 400.0 mg/kg/injection, schedule: Q04DX003 (ip), vehicle: saline with Tween-80",108 % of control and 118 % of control
[CH3][Sn]([CH3])([CH3])[O]C(=O)CCl,T/C,"dose: 0.75 mg/kg/injection, schedule: Q01DX009 (ip), vehicle: saline",120 % of control
same,T/C,"dose: 1.5 mg/kg/injection, schedule: Q01DX009 (ip), vehicle: saline",106 % of control
CN(C)CSCN(C)C,T/C,"dose: 25.0 mg/kg/injection, schedule: Q01DX009 (ip), vehicle: saline with Tween-80",100 % of control
same,T/C,[1],111 % of control
same,T/C,[2],102 % of control
O=C(CBr)NCC1OC(n2cnc3c(=O)[nH]cnc32)C(O)C1O (stereo not drawn),T/C,"dose: 50.0 mg/kg/injection, schedule: Q01DX001 (ip), vehicle: Klucel (hydroxypropylcellulose) (HPC)",109 % of control
same,T/C,"dose: 100.0 mg/kg/injection, schedule: Q01DX001 (ip), vehicle: Klucel (hydroxypropylcellulose) (HPC)",101 % of control
same,T/C,"dose: 200.0 mg/kg/injection, schedule: Q01DX001 (ip), vehicle: Klucel (hydroxypropylcellulose) (HPC)",106 % of control
COC(=O)/C=C1/OC(=O)CC1(C)C,T/C,[4],105 % of control
same,T/C,[5],95 % of control
same,T/C,[6],100 % of control
COc1ccc(P(=S)(S)c2ccc(OC)cc2)cc1,T/C,"dose: 100.0 mg/kg/injection, schedule: Q01DX009 (ip), vehicle: Klucel (hydroxypropylcellulose) (HPC)",100 % of control
same,T/C,"dose: 300.0 mg/kg/injection, schedule: Q01DX009 (ip), vehicle: Klucel (hydroxypropylcellulose) (HPC)",95 % of control
COC(=O)C1CCN(Cc2c[nH]c3ccccc23)CC1,T/C,"dose: 12.5 mg/kg/injection, schedule: Q04DX003 (ip), vehicle: saline with Tween-80",96 % of control
same,T/C,"dose: 25.0 mg/kg/injection, schedule: Q04DX003 (ip), vehicle: saline with Tween-80",96 % of control
same,T/C,"dose: 50.0 mg/kg/injection, schedule: Q04DX003 (ip), vehicle: saline with Tween-80",111 % of control
same,T/C,[7],102 % of control
O=C(Cn1ccc(=O)[nH]c1=O)c1ccc([N+](=O)[O-])o1,T/C,"dose: 25.0 mg/kg/injection, schedule: Q04DX003 (ip), vehicle: saline",109 % of control
same,T/C,"dose: 50.0 mg/kg/injection, schedule: Q04DX003 (ip), vehicle: saline",100 % of control
